From US20040058168A1, “Method for incorporating anionic molecules into a substrate for increasing dispersibility of anionic molecules” (priority 2002, published 2004)

Legend:
[1] = Equivalence point of anionic dye added to organoclay (water phase begins to turn a weak color); assay type: physicochemical
Source text: The objective of the present Example was not only to determine the equivalence points at a fixed clay:quat ratio for the four anionic dyes listed above, but also to determine the effects that varying the clay:quat ratio had on the dye equivalence. The equivalence point for each anionic dye was recognized as the moment when the water phase of the anionic dye/organoclay composition began to turn a weak color. In other words, the equivalence point for each dye indicated the point at which the anionic dye would bleed or fail to be dispersible when the dye/organoclay composition is placed in an aqueous environment. This equivalence point, then, also indicates the point at which the weak bonding sites on the clay have been satisfied.
Determination of the equivalence point for the four anionic dyes began with the preparation of the organoclay and the subsequent addition of the dye to form the anionic dye/organoclay compositions. The organoclay, having a clay:quat ratio of 1.0:0.77, was prepared by first heating 150 grams of clay slurry (wherein the clay slurry comprises 3.24 grams of bentonite clay and thus comprises 2.16% solids) on a hot plate to approximately 65° C. Simultaneously, 2.495 grams of quat were dissolved in hot water. The quat used in this Example was Adogen 442, and the solution contained a quat:water ratio of 1:20. The quat solution was placed on the same hot plate and heated to 65° C., while being stirred to aid in the dissolution of the quat.
The bentonite clay slurry was added to a Waring blender and was allowed to mix under high speed agitation (speed 6) for about 1 minute. The quat solution was then added slowly to the clay slurry and was allowed to react for approximately 25-30 minutes. After this time, the blender was stopped for a few seconds to ensure adequate floccing.
The process described above was repeated using several different clay:quat ratios including 1:0.5 and 1:0.6 (less quat than the experiment described above) and 1:0.9 (an excess of quat with respect to the experiment described above).

[2] = Test-tube determination of anionic character: dye mixed with organoclay, clean clay or quat in water, centrifuged, judged visually; assay type: physicochemical; conditions: for Ionic character of the dye concluded from the test tubes: conclusion from Table 1 observations
Experimental: Thus, the molecule or ion can be tested in order to determine whether it has an anionic character (and thus can undergo the present method) or a cationic character or a neutral character. In testing certain molecules or ions, the procedure described below was employed.
Using Jarocol Straw Yellow dye as a representative example, four 1 mg samples of the dye were weighed and placed in 4 test tubes.
Subsequently, 10 mL of water was added to each of the four test tubes, and all of the samples were mixed well for 30 seconds. The samples from each of the test tubes were then centrifuged for 15 minutes in a laboratory scale centrifuge.
The analysis herein was performed visually, since the six samples tested were dyes. […] For example, for a non-dye sample, the clay may be separated from the water, both parts may be taken to dryness, and the IR spectrum of each may be recorded.

[3] = Clay:Quat Ratio of 1:0.77, 3.24 g bentonite clay, quat Adogen 442

Molecule	Equivalence Point [1, 3] [grams]	Ionic character of the dye concluded from the test tubes [2]	also measured
D&C Green No. 5	0.4853	–	–
FD&C Blue No. 1	0.3750	anionic in nature	–
Cc1ccc(N=Nc2c([O-])c(C(=O)O)cc3ccccc23)c(S(=O)(=O)[O-])c1.[Na+].[Na+] [Lithol Rubine B]	0.4103	requisite anionic character	Equivalence Point ([1]; Clay:Quat Ratio of 1:0.5): 0.0693 grams; Equivalence Point ([1]; Clay:Quat Ratio of 1:0.6): 0.1471 grams; Color change of dye on incorporation into organoclay ([1]; clay:quat ratios of 1:0.77, 1:0.6 and 1:0.5): color change took place; Test Tube 3 (10 mg Quat) visual observation ([2]; 1 mg sample + 10 mg quat, 10 mL water, mixed 30 seconds, centrifuged 15 minutes): the quat layer was dark red and the water layer was clear; Test Tube 4 (Control, sample only) visual observation ([2]; 1 mg sample only, 10 mL water, mixed 30 seconds, centrifuged 15 minutes): Water was red
CN(C)c1ccc2nc3ccc(=[N+](C)C)cc-3sc2c1 [Methylene Blue, reference compound]	–	cationic in nature	–
O=C(O)c1nn(-c2ccc(S(=O)(=O)O)cc2)c(O)c1N=Nc1ccc(S(=O)(=O)O)cc1 [FD&C Yellow No. 5]	–	anionic in nature	–
